The values below come from patent US4547492A, “1-N-(ω-Amino-α-hydroxyalkanoyl-2',3'-dideoxykanamycin A and pharmaceutical composition containing same” (Zaidan Hojin Biseibutsu Kagaku Kenkyu Kai, priority 1983, dated 1985).

In brackets after ≈: the same amount, converted by molar mass. Like-named read-outs stand apart in the source and are kept apart here. Bounds are passed on as bounds.

Broadly, the LD50 is the dose expected to kill half of the subjects tested.

The test system of data set [1] is Bacillus subtilis PCI 219. As to the kind of experiment: MIC, serial dilution on nutrient agar. It is filed as cell-based. The following applies: PCI219, B. subtilis PCI 219, 37° C., 18 hours. Here is the method:
(§1) For comparison purpose, the minimum inhibitory concentrations (MIC.) of 1-N-(L-4-amino-2-hydroxybutyryl)-kanamycin A, namely amikacin and of 2',3'-dideoxykanamycin A (abbreviated as DKA) are also shown in Table 1.
(§2) The minimum inhibitory concentrations (mcg/ml) of these kanamycin A derivatives against the various bacteria were determined according to a standard serial dilution method on a nutrient agar medium at 37° C., the estimation being made after 18 hours incubation.

Data set [2] has as its system Escherichia coli ML 1629. The data set is described as follows: MIC, serial dilution on nutrient agar. It is filed as cell-based. On the procedure:
as §1, §2

Data set [3] concerns Escherichia coli ML 1630. As to the kind of experiment: MIC, serial dilution on nutrient agar. It is filed as cell-based. The following applies: ML1630, E. coli ML 1630, 37° C., 18 hours. On the procedure: as §1, §2
Data set [4] deals with Escherichia coli ML R 81. As to the kind of experiment: MIC, serial dilution on nutrient agar. It is filed as cell-based. Here is the method: as §1, §2
Data set [5] relates to Proteus rettgeri GN 311. The data set is described as follows: MIC, serial dilution on nutrient agar. It is filed as cell-based. The following applies: Providencia rettgeri, GN311, 37° C., 18 hours. On the procedure:
as §1, §2

Data set [6] relates to Pseudomonas aeruginosa A3. As to the kind of experiment: MIC, serial dilution on nutrient agar. The following applies: P. aeruginosa A3, 37° C., 18 hours. It is filed as cell-based. Here is the method:
as §1, §2

Data set [7] has as its system Pseudomonas aeruginosa B-13. The data set is described as follows: MIC, serial dilution on nutrient agar. It is filed as cell-based. On the procedure:
as §1, §2

The subject of data set [8] is Pseudomonas aeruginosa H9. The data set is described as follows: MIC, serial dilution on nutrient agar. It is filed as cell-based. Here is the method:
as §1, §2

Data set [9] relates to Pseudomonas aeruginosa K-Ps 102. The data set is described as follows: MIC, serial dilution on nutrient agar. It is filed as cell-based. Here is the method: as §1, §2
The subject of data set [10] is Serratia marcescens I-0111. As to the kind of experiment: MIC, serial dilution on nutrient agar. It is filed as cell-based. Here is the method:
as §1, §2

In data set [11] the test system is Serratia marcescens I-0115. As to the kind of experiment: MIC, serial dilution on nutrient agar. It is filed as cell-based. On the procedure: as §1, §2
In data set [12] the test system is Serratia marcescens I-0139. As to the kind of experiment: MIC, serial dilution on nutrient agar. It is filed as cell-based. The settings on record: I0139, S. marcescens I-0139, 37° C., 18 hours. On the procedure: as §1, §2
In data set [13] the test system is Serratia marcescens I-0162. The data set is described as follows: MIC, serial dilution on nutrient agar. It is filed as cell-based. Here is the method:
as §1, §2

Data set [14] has as its system Serratia sp. 4. The data set is described as follows: MIC, serial dilution on nutrient agar. It is filed as cell-based. The settings on record: 37° C., 18 hours. Here is the method: as §1, §2
In data set [15] the test system is Staphylococcus aureus 209P. As to the kind of experiment: MIC, serial dilution on nutrient agar. The settings on record: S. aureus 209P, 37° C., 18 hours. It is filed as cell-based. On the procedure:
as §1, §2

Data set [16] has as its system Staphylococcus aureus Ap 01. The data set is described as follows: MIC, serial dilution on nutrient agar. It is filed as cell-based. Here is the method:
as §1, §2

For data set [17], the system named is Escherichia coli J5R11-2. The data set is described as follows: microbe, parasite or virus in culture. The settings on record: J5R112, 18 h. On the procedure: as §1, §2
A short description of data set [18]: acute toxicity by intravenous injection in mice. The following applies: mouse, in vivo.
Where [19] appears, read: ML1629, E. coli ML 1629, nutrient agar, 37° C., 18 hours, read-out: MIC.
[20] abbreviates: MLR81, E. coli ML R 81, nutrient agar, 37° C., 18 hours, read-out: MIC.
Where [21] appears, read: P. aeruginosa H9, nutrient agar, 37° C., 18 hours, read-out: MIC.
Where [22] appears, read: AP01, S. aureus Ap 01, nutrient agar, 37° C., 18 hours, read-out: MIC.
Setting [23] is: I0111, S. marcescens I-0111, nutrient agar, 37° C., 18 hours, read-out: MIC.
[24] abbreviates: I0115, S. marcescens I-0115, nutrient agar, 37° C., 18 hours, read-out: MIC.

Consider `NCC[C@H](O)C(=O)N[C@@H]1C[C@H](N)[C@@H](O[C@@H]2CC[C@H](O)[C@@H](CN)O2)[C@H](O)[C@H]1O[C@H]1O[C@H](CO)[C@@H](O)[C@H](N)[C@H]1O` [AHDK], for which the MIC in data set [1] was 0.2 µg/mL (≈ 0.361 µM); in [2] (setting [19]) it was 1.56 µg/mL (≈ 2.82 µM); in data set [3], 1.56 µg/mL (≈ 2.82 µM); in data set [4] (setting [20]), 1.56 µg/mL (≈ 2.82 µM); in [5] it was 0.39 µg/mL (≈ 0.704 µM); in data set [6], 0.78 µg/mL (≈ 1.41 µM). Besides, the MIC in [7] (B13, 18 h) was determined as 12.5 µg/mL (≈ 22.6 µM); in [8] (setting [21]), 3.13 µg/mL (≈ 5.65 µM); in data set [9] (KPS102, 18 h) it was 6.25 µg/mL (≈ 11.3 µM); in data set [10] (I0111, 18 h) it was 6.25 µg/mL (≈ 11.3 µM); in data set [11] (I0115, 18 h), 6.25 µg/mL (≈ 11.3 µM); in data set [12], 12.5 µg/mL (≈ 22.6 µM). Also, the MIC worked out at 6.25 µg/mL (≈ 11.3 µM) in [13] (I0162, 18 h); 1.56 µg/mL (≈ 2.82 µM) in [14]; 0.1 µg/mL (≈ 0.181 µM) in data set [15]; 0.39 µg/mL (≈ 0.704 µM) in data set [16] (setting [22]); 0.78 µg/mL (≈ 1.41 µM) in data set [17]. Besides, in data set [18], the LD50 was 326 mg/kg.

Turning to `NCC[C@H](O)C(=O)N[C@@H]1C[C@H](N)[C@@H](O[C@H]2O[C@H](CN)[C@@H](O)[C@H](O)[C@H]2O)[C@H](O)[C@H]1O[C@H]1O[C@H](CO)[C@@H](O)[C@H](N)[C@H]1O` [Amikacin, 1-N-(L-4-amino-2-hydroxybutyryl)-kanamycin A, reference compound], the MIC is 0.39 µg/mL (≈ 0.666 µM) in data set [1]; 1.56 µg/mL (≈ 2.66 µM) in [2] (ML1629, 18 h); 3.13 µg/mL (≈ 5.34 µM) in [3]; 1.56 µg/mL (≈ 2.66 µM) in [4] (MLR81, 18 h); 0.39 µg/mL (≈ 0.666 µM) in [5]; below 0.2 µg/mL in [6]. Also, the MIC stood at 6.25 µg/mL (≈ 10.7 µM) in data set [7] (B13, P. aeruginosa B-13, nutrient agar, 37° C., 18 hours, read-out: MIC.); 6.25 µg/mL (≈ 10.7 µM) in data set [8] (setting [21]); 6.25 µg/mL (≈ 10.7 µM) in [9] (KPS102, P. aeruginosa K-Ps 102, nutrient agar, 37° C., 18 hours, read-out: MIC.); 25 µg/mL (≈ 42.7 µM) in data set [10] (setting [23]); 50 µg/mL (≈ 85.4 µM) in [11] (setting [24]); 100 µg/mL (≈ 171 µM) in [12]. For the same compound, the MIC in data set [13] (I0162, S. marcescens I-0162, nutrient agar, 37° C., 18 hours, read-out: MIC.) was determined as 50 µg/mL (≈ 85.4 µM); in [14], 3.13 µg/mL (≈ 5.34 µM); in data set [15], 0.78 µg/mL (≈ 1.33 µM); in [16] (AP01, 18 h) it was 1.56 µg/mL (≈ 2.66 µM); in data set [17] it was 1.56 µg/mL (≈ 2.66 µM).

`NC[C@H]1O[C@H](O[C@H]2[C@H](O)[C@@H](O[C@H]3O[C@H](CO)[C@@H](O)[C@H](N)[C@H]3O)[C@H](N)C[C@@H]2N)CC[C@@H]1O` [DKA, 2',3'-dideoxykanamycin A]: the MIC turned out to be 0.39 µg/mL (≈ 0.862 µM) in data set [1]; 1.56 µg/mL (≈ 3.45 µM) in [2] (setting [19]); 3.13 µg/mL (≈ 6.92 µM) in data set [3]; 3.13 µg/mL (≈ 6.92 µM) in [4] (setting [20]); 1.56 µg/mL (≈ 3.45 µM) in data set [6]; 12.5 µg/mL (≈ 27.6 µM) in [7] (B13, 18 h). In addition, the MIC was 6.25 µg/mL (≈ 13.8 µM) in [8] (H9, 18 h); 6.25 µg/mL (≈ 13.8 µM) in data set [9] (KPS102, 18 h); 1.56 µg/mL (≈ 3.45 µM) in data set [15]; 3.13 µg/mL (≈ 6.92 µM) in [16] (setting [22]); 3.12 µg/mL (≈ 6.89 µM) in data set [17].

Take `NC[C@H](O)C(=O)N[C@@H]1C[C@H](N)[C@@H](O[C@@H]2CC[C@H](O)[C@@H](CN)O2)[C@H](O)[C@H]1O[C@H]1O[C@H](CO)[C@@H](O)[C@H](N)[C@H]1O` [ISDK, 1-N-(L-3-amino-2-hydroxy-propionyl)-2',3'-dideoxykanamycin A]: the MIC in data set [1] was 0.39 µg/mL (≈ 0.723 µM); in data set [2] (setting [19]) it was 1.56 µg/mL (≈ 2.89 µM); in [3], 3.13 µg/mL (≈ 5.8 µM); in data set [4] (setting [20]), 1.56 µg/mL (≈ 2.89 µM); in [5] it was 0.39 µg/mL (≈ 0.723 µM); in data set [6] it was 0.78 µg/mL (≈ 1.45 µM). The MIC in data set [7] (B13, 18 h) was 12.5 µg/mL (≈ 23.2 µM); in data set [8] (setting [21]), 3.13 µg/mL (≈ 5.8 µM); in data set [9] (KPS102, 18 h), 6.25 µg/mL (≈ 11.6 µM); in data set [10] (setting [23]) it was 3.13 µg/mL (≈ 5.8 µM); in data set [11] (setting [24]), 3.13 µg/mL (≈ 5.8 µM); in [12], 6.25 µg/mL (≈ 11.6 µM). In addition, the MIC in [13] (I0162, 18 h) was found to be 6.25 µg/mL (≈ 11.6 µM); in [14], 1.56 µg/mL (≈ 2.89 µM); in [15] it was 0.2 µg/mL (≈ 0.371 µM); in [16] (setting [22]) it was 0.78 µg/mL (≈ 1.45 µM); in data set [17], 0.78 µg/mL (≈ 1.45 µM). Besides, the LD50 in data set [18] stood at 240 mg/kg.
